# Source: patent US20110039721A1, “METHOD FOR PREDICTION ABOUT CARCINOGENICITY OF SUBSTANCE IN RODENT” (Chemicals Evaluation and Research Institute, priority 2007, published 2011)
# Like-named read-outs stand apart in the source and are kept apart here.
# Columns and labels:
# [1] = tested on: liver; settings: cited from earlier work
# [2] = tested on: rodent; settings: cited from earlier work
# [3] = tested on: mRNA expressed from the genes (A) to (D) in rat liver; experiment: Behavior of genes (mRNA expression level, oligo-DNA microarray) in rat liver after 28-day oral administration; format: in vivo; settings: for Behavior of gene caused by administration of chemical substance, Gene No. 4846 / Behavior of gene caused by administration of chemical substance, Gene No. 2026 / Behavior of gene caused by administration of chemical substance, Gene No. 4218 / Behavior of gene caused by administration of chemical substance, Gene No. 6182 / Behavior of gene caused by administration of chemical substance, Gene No. 5600: gene group (A); for Behavior of gene caused by administration of chemical substance, Gene No. 4846: Unigene No. Rn.144554; for Behavior of gene caused by administration of chemical substance, Gene No. 2026 / Behavior of gene caused by administration of chemical substance, Gene No. 4218: Unigene No. Rn.167075; for Behavior of gene caused by administration of chemical substance, Gene No. 6182: Unigene No. Rn.5834; for Behavior of gene caused by administration of chemical substance, Gene No. 5600: Unigene No. Rn.9836; for Behavior of gene caused by administration of chemical substance, Gene No. 1494 / Behavior of gene caused by administration of chemical substance, Gene No. 2045 / Behavior of gene caused by administration of chemical substance, Gene No. 2203: gene group (B); for Behavior of gene caused by administration of chemical substance, Gene No. 1494: Unigene No. Rn.1430; for Behavior of gene caused by administration of chemical substance, Gene No. 2045: Unigene No. Rn.19329; for Behavior of gene caused by administration of chemical substance, Gene No. 2203: Unigene No. Rn.21240; for Behavior of gene caused by administration of chemical substance, Gene No. 533 / Behavior of gene caused by administration of chemical substance, Gene No. 725 / Behavior of gene caused by administration of chemical substance, Gene No. 1163 / Behavior of gene caused by administration of chemical substance, Gene No. 4973 / Behavior of gene caused by administration of chemical substance, Gene No. 4095 / Behavior of gene caused by administration of chemical substance, Gene No. 1334 / Behavior of gene caused by administration of chemical substance, Gene No. 6620 / Behavior of gene caused by administration of chemical substance, Gene No. 6303 / Behavior of gene caused by administration of chemical substance, Gene No. 5878 / Behavior of gene caused by administration of chemical substance, Gene No. 1131 / Behavior of gene caused by administration of chemical substance, Gene No. 1562 / Behavior of gene caused by administration of chemical substance, Gene No. 1741 / Behavior of gene caused by administration of chemical substance, Gene No. 893 / Behavior of gene caused by administration of chemical substance, Gene No. 6026 / Behavior of gene caused by administration of chemical substance, Gene No. 154 / Behavior of gene caused by administration of chemical substance, Gene No. 1993 / Behavior of gene caused by administration of chemical substance, Gene No. 813 / Behavior of gene caused by administration of chemical substance, Gene No. 2494 / Behavior of gene caused by administration of chemical substance, Gene No. 2546 / Behavior of gene caused by administration of chemical substance, Gene No. 3776 / Behavior of gene caused by administration of chemical substance, Gene No. 3929 / Behavior of gene caused by administration of chemical substance, Gene No. 1119 / Behavior of gene caused by administration of chemical substance, Gene No. 6742 / Behavior of gene caused by administration of chemical substance, Gene No. 5634: gene group (C); for Behavior of gene caused by administration of chemical substance, Gene No. 533: Unigene No. Rn.106184; for Behavior of gene caused by administration of chemical substance, Gene No. 725: Unigene No. Rn.108075; for Behavior of gene caused by administration of chemical substance, Gene No. 1163: Unigene No. Rn.11766; for Behavior of gene caused by administration of chemical substance, Gene No. 4973: Unigene No. Rn.118529; for Behavior of gene caused by administration of chemical substance, Gene No. 4095: Unigene No. Rn.119024; for Behavior of gene caused by administration of chemical substance, Gene No. 1334 / Behavior of gene caused by administration of chemical substance, Gene No. 6620: Unigene No. Rn.120914; for Behavior of gene caused by administration of chemical substance, Gene No. 6303: Unigene No. Rn.123063; for Behavior of gene caused by administration of chemical substance, Gene No. 5878: Unigene No. Rn.143213; for Behavior of gene caused by administration of chemical substance, Gene No. 1131: Unigene No. Rn.144946; for Behavior of gene caused by administration of chemical substance, Gene No. 1562: Unigene No. Rn.14744; for Behavior of gene caused by administration of chemical substance, Gene No. 1741: Unigene No. Rn.1647; for Behavior of gene caused by administration of chemical substance, Gene No. 893: Unigene No. Rn.164817; for Behavior of gene caused by administration of chemical substance, Gene No. 6026: Unigene No. Rn.167685; for Behavior of gene caused by administration of chemical substance, Gene No. 154: Unigene No. Rn.185941; for Behavior of gene caused by administration of chemical substance, Gene No. 1993: Unigene No. Rn.18728; for Behavior of gene caused by administration of chemical substance, Gene No. 813: Unigene No. Rn.201760; for Behavior of gene caused by administration of chemical substance, Gene No. 2494: Unigene No. Rn.23969; for Behavior of gene caused by administration of chemical substance, Gene No. 2546: Unigene No. Rn.24561; for Behavior of gene caused by administration of chemical substance, Gene No. 3776: Unigene No. Rn.43232; for Behavior of gene caused by administration of chemical substance, Gene No. 3929: Unigene No. Rn.4620; for Behavior of gene caused by administration of chemical substance, Gene No. 1119: Unigene No. Rn.9757; for Behavior of gene caused by administration of chemical substance, Gene No. 6742: Unigene No. Rn.9779; for Behavior of gene caused by administration of chemical substance, Gene No. 5634: Unigene No. Rn.9862; for Behavior of gene caused by administration of chemical substance, Gene No. 5726: gene group (D), Unigene No. Rn.9939
# In short: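 Male F344 SPF rats, 5 weeks old, four per group, dosed by oral gavage once daily for 28 days with test chemical or matched-volume solvent. Liver total RNA profiled on oligo-DNA microarray. Change ≥1.5-fold or ≤1/1.5 versus vehicle counted as significant if its direction matched that seen with other carcinogens.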
structure (smiles),measurement,setting,value
"ClC1=C(Cl)[C@]2(Cl)[C@@H]3[C@@H]4C[C@@H]([C@H]5O[C@@H]45)[C@@H]3[C@@]1(Cl)C2(Cl)Cl [TS017, Dieldrin]",Liver carcinogenicity,[1]; in vivo,Cr−
same,Carcinogenicity,[2]; in vivo,C+
same,"Behavior of gene caused by administration of chemical substance, Gene No. 4846",[3],−
same,"Behavior of gene caused by administration of chemical substance, Gene No. 2026",[3],−
same,"Behavior of gene caused by administration of chemical substance, Gene No. 4218",[3],−
same,"Behavior of gene caused by administration of chemical substance, Gene No. 6182",[3],+
same,"Behavior of gene caused by administration of chemical substance, Gene No. 5600",[3],−
same,"Behavior of gene caused by administration of chemical substance, Gene No. 1494",[3],+
same,"Behavior of gene caused by administration of chemical substance, Gene No. 2045",[3],+
same,"Behavior of gene caused by administration of chemical substance, Gene No. 2203",[3],+
same,"Behavior of gene caused by administration of chemical substance, Gene No. 533",[3],+
same,"Behavior of gene caused by administration of chemical substance, Gene No. 725",[3],−
same,"Behavior of gene caused by administration of chemical substance, Gene No. 1163",[3],−
same,"Behavior of gene caused by administration of chemical substance, Gene No. 4973",[3],−
same,"Behavior of gene caused by administration of chemical substance, Gene No. 4095",[3],−
same,"Behavior of gene caused by administration of chemical substance, Gene No. 1334",[3],−
same,"Behavior of gene caused by administration of chemical substance, Gene No. 6620",[3],−
same,"Behavior of gene caused by administration of chemical substance, Gene No. 6303",[3],−
same,"Behavior of gene caused by administration of chemical substance, Gene No. 5878",[3],−
same,"Behavior of gene caused by administration of chemical substance, Gene No. 1131",[3],−
same,"Behavior of gene caused by administration of chemical substance, Gene No. 1562",[3],−
same,"Behavior of gene caused by administration of chemical substance, Gene No. 1741",[3],−
same,"Behavior of gene caused by administration of chemical substance, Gene No. 893",[3],−
same,"Behavior of gene caused by administration of chemical substance, Gene No. 6026",[3],−
same,"Behavior of gene caused by administration of chemical substance, Gene No. 154",[3],−
same,"Behavior of gene caused by administration of chemical substance, Gene No. 1993",[3],−
same,"Behavior of gene caused by administration of chemical substance, Gene No. 813",[3],−
same,"Behavior of gene caused by administration of chemical substance, Gene No. 2494",[3],−
same,"Behavior of gene caused by administration of chemical substance, Gene No. 2546",[3],−
same,"Behavior of gene caused by administration of chemical substance, Gene No. 3776",[3],−
same,"Behavior of gene caused by administration of chemical substance, Gene No. 3929",[3],−
same,"Behavior of gene caused by administration of chemical substance, Gene No. 1119",[3],−
same,"Behavior of gene caused by administration of chemical substance, Gene No. 6742",[3],−
same,"Behavior of gene caused by administration of chemical substance, Gene No. 5634",[3],−
same,"Behavior of gene caused by administration of chemical substance, Gene No. 5726",[3],−
"CCCCC(CC)COC(=O)CCCCC(=O)OCC(CC)CCCC (stereo not shown) [TS018, Di(2-ethylhexyl)adipate]",Liver carcinogenicity,[1]; classification of the substance (Cr+/Cr−),Cr−
same,Carcinogenicity,[2]; classification of the substance (C+/C−),C+
same,"Behavior of gene caused by administration of chemical substance, Gene No. 4846",[3]; mRNA vs vehicle control group,−
same,"Behavior of gene caused by administration of chemical substance, Gene No. 2026",[3]; mRNA vs vehicle control group,−
same,"Behavior of gene caused by administration of chemical substance, Gene No. 4218",[3]; mRNA vs vehicle control group,−
same,"Behavior of gene caused by administration of chemical substance, Gene No. 6182",[3]; mRNA vs vehicle control group,+
same,"Behavior of gene caused by administration of chemical substance, Gene No. 5600",[3]; mRNA vs vehicle control group,−
same,"Behavior of gene caused by administration of chemical substance, Gene No. 1494",[3]; mRNA vs vehicle control group,+
same,"Behavior of gene caused by administration of chemical substance, Gene No. 2045",[3]; mRNA vs vehicle control group,+
same,"Behavior of gene caused by administration of chemical substance, Gene No. 2203",[3]; mRNA vs vehicle control group,+
same,"Behavior of gene caused by administration of chemical substance, Gene No. 533",[3]; mRNA vs vehicle control group,+
same,"Behavior of gene caused by administration of chemical substance, Gene No. 725",[3]; mRNA vs vehicle control group,−
same,"Behavior of gene caused by administration of chemical substance, Gene No. 1163",[3]; mRNA vs vehicle control group,−
same,"Behavior of gene caused by administration of chemical substance, Gene No. 4973",[3]; mRNA vs vehicle control group,+
same,"Behavior of gene caused by administration of chemical substance, Gene No. 4095",[3]; mRNA vs vehicle control group,+
same,"Behavior of gene caused by administration of chemical substance, Gene No. 1334",[3]; mRNA vs vehicle control group,−
same,"Behavior of gene caused by administration of chemical substance, Gene No. 6620",[3]; mRNA vs vehicle control group,−
same,"Behavior of gene caused by administration of chemical substance, Gene No. 6303",[3]; mRNA vs vehicle control group,−
same,"Behavior of gene caused by administration of chemical substance, Gene No. 5878",[3]; mRNA vs vehicle control group,−
same,"Behavior of gene caused by administration of chemical substance, Gene No. 1131",[3]; mRNA vs vehicle control group,−
same,"Behavior of gene caused by administration of chemical substance, Gene No. 1562",[3]; mRNA vs vehicle control group,−
same,"Behavior of gene caused by administration of chemical substance, Gene No. 1741",[3]; mRNA vs vehicle control group,−
same,"Behavior of gene caused by administration of chemical substance, Gene No. 893",[3]; mRNA vs vehicle control group,−
same,"Behavior of gene caused by administration of chemical substance, Gene No. 6026",[3]; mRNA vs vehicle control group,−
same,"Behavior of gene caused by administration of chemical substance, Gene No. 154",[3]; mRNA vs vehicle control group,−
same,"Behavior of gene caused by administration of chemical substance, Gene No. 1993",[3]; mRNA vs vehicle control group,−
same,"Behavior of gene caused by administration of chemical substance, Gene No. 813",[3]; mRNA vs vehicle control group,−
same,"Behavior of gene caused by administration of chemical substance, Gene No. 2494",[3]; mRNA vs vehicle control group,−
same,"Behavior of gene caused by administration of chemical substance, Gene No. 2546",[3]; mRNA vs vehicle control group,−
same,"Behavior of gene caused by administration of chemical substance, Gene No. 3776",[3]; mRNA vs vehicle control group,−
same,"Behavior of gene caused by administration of chemical substance, Gene No. 3929",[3]; mRNA vs vehicle control group,−
same,"Behavior of gene caused by administration of chemical substance, Gene No. 1119",[3]; mRNA vs vehicle control group,−
same,"Behavior of gene caused by administration of chemical substance, Gene No. 6742",[3]; mRNA vs vehicle control group,−
same,"Behavior of gene caused by administration of chemical substance, Gene No. 5634",[3]; mRNA vs vehicle control group,−
same,"Behavior of gene caused by administration of chemical substance, Gene No. 5726",[3]; mRNA vs vehicle control group,−
